Marks after values point to notes of the source that are not given here.
Columns and labels:
[1] = tested on: patients with stable moderate to severe chronic obstructive pulmonary disease (COPD); experiment: Clinical phase IIa single-dose cross-over study in stable moderate to severe COPD (trough FEV1, safety, tolerability); type: in vivo, human; settings: for Change from baseline in morning pre-dose (trough) FEV1 at Day 2: 23-24 h after administration
Text: (§1) Clinical phase IIa study: A randomised, single dose, double-blind, double-dummy, 6 way complete cross-over, placebo and active comparator controlled, assesses the efficacy, safety and tolerability of single doses of abediterol administered once daily by inhalation compared to placebo and active comparator in patients with stable moderate to severe chronic obstructive pulmonary disease (COPD).
(§2) Methods: 63 patients (men and women aged ≧40 years) with a clinical diagnosis of stable moderate to severe COPD, as defined by the 2011 GOLD guideline, with no signs of an exacerbation within 6 weeks prior to the screening visit and with a FEV1 30-80% of the predicted normal values (according to Quanjer et al. 1993) were randomised to treatment sequences comprising a single-dose administration of abediterol (at a metered nominal dose of 0.625, 2.5, 5 and 10 micrograms in the Genuair® device), one administration of indacaterol (at a metered nominal dose of 150 micrograms once daily in the Onbrez Breezhaler® device) and placebo (administered in both Genuair® and Onbrez Breezhaler®). The washout period between each administration was at least 7 days. Lung function measurements included (by spirometry) trough FEV1. Trough FEV1 is defined as a main FEV1 value between 23 and 24 h after Investigational Medicinal Product (IMP) administration.

[2] = Measurement of the fine particle dose (FPD<5 μm, Anderson Cascade Impactor, Genuair inhaler); type: physicochemical
Procedure: The test on the aerodynamic assessment of the fine particles (FPD<5 μm) of the inhalation powder composition is carried out in combination with the Genuair® inhaler. The Fine Particle Fraction of abediterol free base was calculated on basis of the principles of the aerodynamic assessment of fine particles according to the Current European pharmacopoeia (Ph. Eur. Chapter 2.9.18) and USP <601> by the aid of aerodynamic impactor analyses using a modified Anderson Cascade Impactor (ACI), 60 L/min-configuration including pre-separator, stage −1, −0, and stage 1-7 (filter stage). The content of the active ingredient on each stage of the impactor is determined my means of HPLC.
The fine particle dose (FPD<5 μm) is calculated based on Ph. Eur. Chapter 2.9.18 and USP <601> by point to point interpolation per dosage. Linear point to point interpolation is done between the stages with a corresponding effective cut-off diameter which enclose the 5 μm mark.
To obtain the Fine Particle Dose, the cumulative percent value (y-value) at which the line of data plot crosses 5 μm mark is determined. […]
FPD [μg]=yFPD·F/100% • FPD=Fine particle dose<5 μm of the active ingredient per dosage [μg]. • yFPD=y-value of cumulative percentage of mass at a particle size of 5 μm evaluated by linear point to point interpolation [%]. • F=sum of mass on stage −1-stage 7 (filter) per dosage [μg].

[3] = Measurement of the delivered dose (collection tube, Genuair inhaler, HPLC); type: physicochemical
Procedure: The measurement of the delivered dose is carried out based on Ph. Eur. Chapter 2.9.18 and USP <601> using “collection tube” apparatus (CT). For this, the Genuair® inhaler is fitted to the Collection Tube via an adapter, the dosage key of the Genuair® inhaler is pressed and released and then 2 L or 4 L of air are sucked through the inhaler and the Collection Tube (the inspiratory flow rate through the inhaler was approx. 65 L/min at a pressure drop of 4 KPa). Subsequently, the inhalation powder delivered to the Collection Tube is extracted with solvent and analyzed using High Performance Liquid chromatography equipment (HPLC).

[4] = tested on: persistent asthmatic patients; experiment: Clinical phase IIa single-dose cross-over study in persistent asthma (FEV1, safety, tolerability); type: in vivo, human
Text: as §1, with “persistent asthmatic patients.” for “patients with stable moderate to severe chronic obstructive pulmonary disease (COPD).”
(§3) Methods: 62 patients (Adult men and women aged 18-70 years) with a clinical diagnosis of persistent asthma, as defined by the 2011 GINA guideline, for at least 6 months prior to screening and with a FEV1 61-85% of the predicted normal values (according to Quanjer et al. 1993) were randomised to treatment sequences comprising a single-dose administration of abediterol (at metered nominal doses of 0.313, 0.625, 1.25 and 2.5 micrograms in the Genuair® device), one administration of salbutamol (at a metered nominal dose of 400 micrograms (100 micrograms×4 puffs) in the Ventolin Evohaler® device) and placebo (administered in both Genuair® and Ventolin Evohaler®) administered all of them by means of […]. The washout period between each administration was at least 7 days.

[5] = tested on: asthmatic and COPD patients; experiment: Overall conclusion of the phase IIa studies in asthmatic and COPD patients; type: in vivo, human
Text: as §3, §2

[6] = nominal dose of 1.25 micrograms abediterol free base
[7] = nominal dose of 2.5 micrograms abediterol free base

O=c1ccc2c([C@@H](O)CNCCCCCCOCC(F)(F)c3ccccc3)ccc(O)c2[nH]1 [Abediterol, 5-(2-{[6-(2,2-difluoro-2-phenylethoxy)hexyl]amino}-1(R)-hydroxyethyl)-8-hydroxyquinolin-2(1H)-one]
Tolerability (ECG, laboratory parameters, adverse events) ([1]; COPD patients, doses 0.625-10 micrograms, no dose-dependent effect): well tolerated | Trough FEV1 compared with indacaterol 150 micrograms ([1]; doses of 2.5, 5 and 10 micrograms, statistically significant): greater trough FEV1 | Minimum therapeutic effective dose producing higher bronchodilatory effects when compared with indacaterol 150 micrograms ([1]; metered nominal dose, Genuair): 2.5 micrograms | Change from baseline in morning pre-dose (trough) FEV1 at Day 2 ([1]; single inhaled dose 0.625 μg, Genuair, n = 67): 66* ml | Change from baseline in morning pre-dose (trough) FEV1 at Day 2 ([1]; single inhaled dose 2.5 μg, Genuair, n = 66): 168** ml | Change from baseline in morning pre-dose (trough) FEV1 at Day 2 ([1]; single inhaled dose 5 μg, Genuair): 198** ml | Change from baseline in morning pre-dose (trough) FEV1 at Day 2 ([1]; single inhaled dose 10 μg, Genuair): 223*** ml | Fine particle dose (FPD<5 μm) per dose [2, 6]: about 0.45 micrograms | Fine particle dose (FPD<5 μm) per dose [2, 7]: about 1.0 micrograms | Delivered dose per dose [3, 6]: about 1.1 micrograms | Delivered dose per dose [3, 7]: about 2.3 micrograms | Tolerability (ECG, laboratory parameters, adverse events) ([4]; asthma patients, doses 0.313-2.5 micrograms, no dose-dependent effect): well tolerated | Bronchodilatory effect compared with salbutamol ([4]; doses of 1.25 and 2.5 micrograms vs salbutamol 400 micrograms): increased bronchodilatory effect | Time to peak FEV1 at day 1 ([4]; post-dose, all abediterol doses (0.313-2.5 micrograms)): ≤ 4 h | Change from baseline in peak FEV1 on Day 1 ([4]; single inhaled dose 0.313 μg, Genuair, n = 60): 477* ml | Change from baseline in peak FEV1 on Day 1 ([4]; single inhaled dose 0.625 μg, Genuair, n = 60): 524* ml | Change from baseline in peak FEV1 on Day 1 ([4]; single inhaled dose 1.25 μg, Genuair, n = 60): 573** ml | Change from baseline in peak FEV1 on Day 1 ([4]; single inhaled dose 2.5 μg, Genuair, n = 61): 608*** ml | Duration of bronchodilation effect ([5]; all dose levels tested): more than 24 h | Changes on safety outcomes (HR, QTcF, glucose and potassium) ([5]; all doses tested): no overall clinically relevant changes | Minimum dose having similar therapeutic effect to salbutamol and indacaterol ([5]; metered nominal dose, Genuair): 0.625 micrograms

CCc1cc2c(cc1CC)CC(NC[C@H](O)c1ccc(O)c3[nH]c(=O)ccc13)C2 [Indacaterol, reference compound]
Change from baseline in morning pre-dose (trough) FEV1 at Day 2 ([1]; 150 μg, Onbrez Breezhaler, n = 68): 76* ml

CC(C)(C)NCC(O)c1ccc(O)c(CO)c1 (centres unmarked) [Salbutamol, reference compound]
Change from baseline in peak FEV1 on Day 1 ([4]; 400 μg (100 micrograms×4 puffs), Ventolin Evohaler, n = 58): 555** ml

From patent US20160303108A1, “NOVEL DOSAGE FORM AND FORMULATION OF ABEDITEROL” (Almirall, S.A., priority 2012, published 2016)
